Measurements from patent US6492137B1, “Response element compositions and assays employing same” (The Salk Institute for Biological Studies, priority 1989, dated 2002).

Experiments:
TRβ = target: T1, TRβ (Homo sapiens, UniProt P10828); assay: Gel retardation DNA-binding assay with TRβ-expressing COS cell extracts; parameters: expressed in transfected cells; host or cells: COS cells (whole-cell extract); settings: gel retardation; TRβ COS cell extract
T1 sequence (P10828 1-461): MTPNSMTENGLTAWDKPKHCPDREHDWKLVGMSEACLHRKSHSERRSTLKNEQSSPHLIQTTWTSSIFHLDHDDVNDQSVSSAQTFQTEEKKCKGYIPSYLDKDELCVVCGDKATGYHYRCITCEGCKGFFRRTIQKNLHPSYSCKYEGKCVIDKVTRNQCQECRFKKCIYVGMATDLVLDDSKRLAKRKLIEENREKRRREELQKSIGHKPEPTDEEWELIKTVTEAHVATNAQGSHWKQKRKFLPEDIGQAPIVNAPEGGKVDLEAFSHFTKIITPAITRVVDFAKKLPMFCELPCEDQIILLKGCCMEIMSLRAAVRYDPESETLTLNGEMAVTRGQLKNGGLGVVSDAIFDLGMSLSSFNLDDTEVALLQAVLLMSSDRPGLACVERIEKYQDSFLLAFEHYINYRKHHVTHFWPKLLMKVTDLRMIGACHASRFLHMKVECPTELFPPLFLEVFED
Experimental: For DNA binding assays, COS cells were cultured in DMEM with 10% calf bovine serum and transfected by the calcium phosphate method with 20 μg of the pCMX receptor expression plasmid for 6 hours followed by a glycerol shock. After incubating the transfected COS cells for another 48 hours, the cells were harvested to prepare extracts for the DNA binding assay, carried out as described by Damm et al., Nature 339: 593-597 (1989). The extracts were made in 20 mM HEPES (pH 7.4), 0.4 M KCl, 2 mM DTT and 20% glycerol. A similar method was employed to prepare a whole cell extract from F9 stem cells. For the binding, 5 μg (COS) or 10 μg (F9) of proteins was incubated on ice for 20 minutes, first in 20 mM HEPES, 80 mM KCl, 1 mM DTT, 0.1% NP40, 2.5 μg of poly dI/dC, and 10% glycerol (cold competitor oligonucleotides, when included, were added during this pre-incubation period). Then 40 fmole of ^32P-labeled oligonucleotide probe (1-2×10^5 cpm, prepared by filling-in reaction using Klenow polymerase in the presence of α-^32P-dCTP) was added to the reaction mixture, followed by incubation at room temperature for 30 minutes. The receptor-DNA complexes were resolved by electrophoresis through 5% polyacrylamide gel containing 5% glycerol at 6 V/cm at room temperature.
Oligonucleotides listed in FIG. 3 were used as a probe to test specific DNA-binding of the RARα and TRβ in a gel retardation assay.
Using the mobility shift assay, the DNA-binding capacity of extracts from COS cells expressing TRβ and RARα to these sequences was also tested.

RARα = target: T2, RARα (Homo sapiens, UniProt P10276); assay: ΔSV-CAT reporter cotransfection assay in CV-1 cells with RARα expression plasmid, ±RA; assay type: cell-based; parameters: expressed in transfected cells; host or cells: CV-1 (monkey kidney); settings: RA 1 μM
T2 sequence (P10276 1-462): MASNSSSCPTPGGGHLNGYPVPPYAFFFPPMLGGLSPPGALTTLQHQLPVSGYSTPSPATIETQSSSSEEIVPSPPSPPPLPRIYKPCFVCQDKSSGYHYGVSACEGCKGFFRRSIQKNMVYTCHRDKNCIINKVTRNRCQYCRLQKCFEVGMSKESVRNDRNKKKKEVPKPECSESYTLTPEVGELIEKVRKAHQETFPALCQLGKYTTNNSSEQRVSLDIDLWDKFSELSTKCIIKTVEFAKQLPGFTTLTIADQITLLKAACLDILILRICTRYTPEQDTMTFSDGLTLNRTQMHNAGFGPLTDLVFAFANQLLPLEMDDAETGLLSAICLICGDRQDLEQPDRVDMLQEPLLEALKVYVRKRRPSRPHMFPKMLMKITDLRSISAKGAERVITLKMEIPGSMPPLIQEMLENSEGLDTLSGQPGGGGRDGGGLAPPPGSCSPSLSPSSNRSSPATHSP
Description: Receptor expression plasmids used in the following cotransfection assays have been described previously (pRShTRβ [see Thompson, et al., Proc. Natl. Acad. Sci. U.S.A. 86: 3494-3498 (1989)]; pRShRARα [see Giguere, et al., Nature 330: 624-629 (1987)]; pRShRARβ and pRshRARγ [see Ishikawa, et al., Mol. Endocrinol, 4: 837-844 (1990)]; and pRShVDR, [Schule, et al., Cell 61: 497-504 (1990)]. A basal reporter plasmid ΔSV-CAT was constructed by replacing the TK promoter in TK-CAT [Damm, et al., Nature 339: 593-597 (1989)] with the SphI-HindIII fragment of the SV40 early promoter. All of the recombinant CAT reporter plasmids used herein harbor a single copy of the indicated oligonucleotides at the unique HindIII site upstream of the SV40 promoter. Identity of the inserted oligonucleotides was confirmed by sequencing. To improve production of receptor proteins in COS cells, a new eukaryotic expression vector pCMX was prepared by modifying the plasmid CDM8 [Seed, B., Nature 329: 840-842 (1987)]. The CDM8 was cut with MluI and StuI in order to release the DNA fragment encoding the CMV/T7 promoter, SV40 small t intron/poly A signal, polyoma virus enhancer/origin, and SV40 enhancer/origin. The resulting fragment was ligated to a larger fragment of PvuII-digested PUC19. An internal deletion was introduced between unique BamHI and BclI sites present in the DCM8 portion. The stuffer sequence flanked by XbaI sites was replaced with a synthetic polylinker coding for 5′-KpnI/Asp718-EcoRV-BamHI -MscI-NheI-3′, followed by a stretch of 5′-[…]-3′ (SEQ ID NO:48) which can function as a universal termination signal for protein translation. The coding sequence of the luciferase [de Wet, et al., Mol. Cell. Biol. 7: 725-737 (1987)] and human TRβ, RARα, and VDR was placed in the polylinker region of the pCMX, generating pCMX-LUC, Pcmx-Htrβ, pCMX-hRARα, and pCMX-hVDR, respectively. The translation start site of the RARα was modified to […] by attaching the synthetic linker encoding a consensus translation start signal [Hollenberg, et al., Cell 55: 899-906 (1988)]. […]

RAR = assay: Delta-MTV constructs, RA induction in CV-1 cells with cotransfected RAR expression vector; assay type: cell-based; settings: Delta-MTV promoter; with vs without RAR expression vectors
Experimental: Inspection of the sequences of βRE1, βRE2, and βRE3 (see FIG. 2b) identifies a tandem repeat of the 6 bp motif. The center to center separation of 11 bp between these repeats is one turn of the DNA helix. […] Apparently, a single half site element of the RARβ gene would reciprocally be responsive to the TR, ER, and/or other members of the receptor superfamily.
Cells were transfected in 10 cm dishes with 10 μg of DNA containing 5 μg of reporter plasmid, 1-2 μg of either RSV-LUC (a), or RSV-βGAL or pCH110 (c and d), pGEM4 as carrier DNA, and for the experiments shown in a and d, 1 μg of RSV-RAR expression vector or the same amount of an RSV vector generating a nonsense transcript. Cells were harvested 1 day after addition of retinoic acid. All CAT assays represent equivalent amounts of β-galactosidase activity; β-GAL assays were normalized to luciferase activity.

[1] = target: T3, Vitamin D receptor (VDR), in CV-1 cells (Homo sapiens, UniProt P11473 P11473:1-427); assay: cell_activity; vitamin D3 100 nM, CV-1; settings: tags: pRShVDR; label: 32P; 5'-agct overhangs
T3 sequence: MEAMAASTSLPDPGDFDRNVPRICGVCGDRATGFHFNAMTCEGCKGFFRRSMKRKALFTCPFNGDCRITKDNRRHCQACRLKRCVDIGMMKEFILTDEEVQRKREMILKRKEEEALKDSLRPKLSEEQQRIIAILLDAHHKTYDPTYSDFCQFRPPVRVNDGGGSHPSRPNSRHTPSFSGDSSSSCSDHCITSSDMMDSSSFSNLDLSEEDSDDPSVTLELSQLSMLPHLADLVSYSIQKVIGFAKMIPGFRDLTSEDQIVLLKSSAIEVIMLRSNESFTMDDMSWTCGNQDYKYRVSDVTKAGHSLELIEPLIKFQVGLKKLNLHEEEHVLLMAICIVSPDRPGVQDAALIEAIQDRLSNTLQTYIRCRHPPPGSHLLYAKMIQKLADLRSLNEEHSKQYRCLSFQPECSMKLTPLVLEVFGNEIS
Experimental: (§1) For cotransfection assays, a monkey kidney cell line CV-1 was kept in Dulbecco's modified Eagle's medium (DMEM) supplemented with 10% charcoal-resin double split calf bovine serum. Transfections were performed via calcium-phosphate precipitation method as described by Umesono, et al. in Cell 57: 1139–1146 (1989), with 0.5 μg of a pRS receptor expression plasmid, 1.0 μg of a reporter CAT plasmid, 5 μg of pRAS-βGAL [Umesono, et al., Cell 57: 1139–1146 (1989)] as an internal control, and 8.5 μg of carrier plasmid pUC19. The cells were transfected for 8 hours; after washing the DNA precipitates, the cells were then incubated for an additional 36 hours with or without the ligand (T_3, 100 nM; RA, 1 μM; 1,25-(OH)_2 vitamin D_3, 100 nM). Cell extracts were prepared for βGAL and CAT assays, as described by Umesono, et al., supra. Transfection of F9 teratocarcinoma cells was carried out employing a similar method except the cells were incubated for 12 hours in the presence of the DNA precipitates, and the RA was added at 1 μM for another 24 hours before harvesting the cells. 2, 5, and 4 μg of the reporter, pRAS-βGAL, and pUC19 were used, respectively.
(§2) The above strategies were used to test both in vivo transactivation and in vitro DNA-binding of these artificial HREs for TRβ, RARα, and VDR. […]

[2] = target: T4, Thyroid hormone receptor beta (TRβ), in CV-1 cells (Homo sapiens, UniProt P10828 P10828:1-461); assay: cell_activity; T3 100 nM, CV-1; settings: tags: pRShTRβ; label: 32P; 5'-agct overhangs
T4 sequence: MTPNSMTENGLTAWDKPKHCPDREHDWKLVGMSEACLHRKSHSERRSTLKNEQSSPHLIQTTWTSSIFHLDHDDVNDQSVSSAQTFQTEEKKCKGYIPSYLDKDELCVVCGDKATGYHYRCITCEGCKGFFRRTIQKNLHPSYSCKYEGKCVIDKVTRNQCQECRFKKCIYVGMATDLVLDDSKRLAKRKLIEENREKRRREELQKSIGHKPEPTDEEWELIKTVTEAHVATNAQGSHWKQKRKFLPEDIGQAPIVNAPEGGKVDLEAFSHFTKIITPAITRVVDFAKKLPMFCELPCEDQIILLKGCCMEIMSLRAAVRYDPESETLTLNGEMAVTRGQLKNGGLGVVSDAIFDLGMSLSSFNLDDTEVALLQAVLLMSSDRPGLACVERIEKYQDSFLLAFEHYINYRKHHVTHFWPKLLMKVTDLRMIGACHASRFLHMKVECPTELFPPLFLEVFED
Experimental: as §1, §2

With “DR-4: perfect tandem repeat of AGGTCA hexamers separated by 4 nucleotides (SEQ ID NO:27) (AGCTTCAGGTCACAGGAGGTCAGAGAGCT; DNA, backbone not given here; double-stranded DNA response element with agct overhangs, cloned into reporter)” the “TRβ binding to labeled oligonucleotide probe” value (TRβ) was “specific protein-DNA complex” and the “RA response (in words)” value (RARα) was “clear activity”.

With “βRE4: construct containing a single copy of either the 5′- or 3′- half site (SEQ ID NO:8) (AAGCTTCGAAAGTTCACTCGCATAGCTT; listed as DNA, chemistry not given here)” the “function of single half-site constructs” value (RAR) was “functional only upon cotransfection of RAR expression vectors”.

For “βRE5: construct containing a single copy of either the 5′- or 3′- half site (SEQ ID NO:9) (AAGCTTAAGGGTTCACCGAGCTT; listed as DNA, chemistry not given here)”, the “function of single half-site constructs” value (RAR) was “functional only upon cotransfection of RAR expression vectors”.

B1: DR-3 (dsDNA)
DNA 1: AGCTTCAGGTCAAGGAGGTCAGAGAGCT
DNA 2: AGCTCTCTGACCTCCTTGACCTGAAGCT
B1 gave an activity [1] of 8.3 fold induction.

B2: DR-4 (dsDNA)
DNA 1: AGCTTCAGGTCACAGGAGGTCAGAGAGCT
DNA 2: AGCTCTCTGACCTCCTGTGACCTGAAGCT
B2 gave an activity [2] of 22 fold induction.
